What all share (experiment): biochemical
Common to all, as to set-up: Eurofins KinaseProfiler full panel at Km ATP, residual kinase activity (%) relative to DMSO

Test [1] has as its target CDK17/cyclinY(h) (Homo sapiens, UniProt Q00537). A digest of the protocol: (§1)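 Radiometric kinase activity assays were run with ATP at Km and compounds at 10 µM, and remaining activity (%) was reported. A separate competitive binding screen measured DNA-tagged kinase displaced from immobilized active-site ligands by qPCR, giving percent kinase still bound at 10 µM compound in DMSO.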

In test [2] the target is T1, Flt3(h) (Homo sapiens, UniProt P36888).
T1 sequence (P36888 1-993): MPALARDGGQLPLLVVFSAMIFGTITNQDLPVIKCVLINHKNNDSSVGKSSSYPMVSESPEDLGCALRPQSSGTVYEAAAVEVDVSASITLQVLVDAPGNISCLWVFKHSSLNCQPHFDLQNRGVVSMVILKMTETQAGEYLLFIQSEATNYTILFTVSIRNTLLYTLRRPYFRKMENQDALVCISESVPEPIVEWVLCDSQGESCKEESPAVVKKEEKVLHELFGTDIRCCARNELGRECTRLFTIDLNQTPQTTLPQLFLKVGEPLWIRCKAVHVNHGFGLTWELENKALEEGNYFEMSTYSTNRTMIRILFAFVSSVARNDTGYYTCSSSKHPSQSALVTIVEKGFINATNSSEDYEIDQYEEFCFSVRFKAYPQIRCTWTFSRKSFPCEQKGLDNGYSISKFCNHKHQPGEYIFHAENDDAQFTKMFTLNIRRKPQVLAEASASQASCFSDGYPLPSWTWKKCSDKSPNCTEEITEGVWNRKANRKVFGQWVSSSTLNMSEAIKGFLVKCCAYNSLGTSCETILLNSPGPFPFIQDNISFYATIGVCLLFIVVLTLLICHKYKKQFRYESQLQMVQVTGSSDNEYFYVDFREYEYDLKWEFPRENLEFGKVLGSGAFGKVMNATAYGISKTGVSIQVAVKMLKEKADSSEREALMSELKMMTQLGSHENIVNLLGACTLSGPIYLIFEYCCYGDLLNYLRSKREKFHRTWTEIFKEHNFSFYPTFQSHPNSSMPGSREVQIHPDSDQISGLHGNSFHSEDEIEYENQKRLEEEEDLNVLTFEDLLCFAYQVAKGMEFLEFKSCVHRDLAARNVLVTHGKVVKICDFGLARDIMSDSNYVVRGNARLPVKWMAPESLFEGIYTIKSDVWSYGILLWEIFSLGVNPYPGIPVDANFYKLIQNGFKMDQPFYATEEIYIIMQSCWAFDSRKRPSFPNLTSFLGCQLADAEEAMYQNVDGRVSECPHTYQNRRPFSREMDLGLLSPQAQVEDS
In outline:
as §1

For test [3], the target named is PAK2(h) (Homo sapiens, UniProt Q13177). In outline:
as §1

The target in test [4] is T2, PAR-1Bα(h) (Homo sapiens, UniProt Q7KZI7).
T2 construct: gene MARK2
A digest of the protocol:
as §1

The target in test [5] is T3, Plk4(h) (Homo sapiens, UniProt O00444).
T3 sequence (O00444 1-970): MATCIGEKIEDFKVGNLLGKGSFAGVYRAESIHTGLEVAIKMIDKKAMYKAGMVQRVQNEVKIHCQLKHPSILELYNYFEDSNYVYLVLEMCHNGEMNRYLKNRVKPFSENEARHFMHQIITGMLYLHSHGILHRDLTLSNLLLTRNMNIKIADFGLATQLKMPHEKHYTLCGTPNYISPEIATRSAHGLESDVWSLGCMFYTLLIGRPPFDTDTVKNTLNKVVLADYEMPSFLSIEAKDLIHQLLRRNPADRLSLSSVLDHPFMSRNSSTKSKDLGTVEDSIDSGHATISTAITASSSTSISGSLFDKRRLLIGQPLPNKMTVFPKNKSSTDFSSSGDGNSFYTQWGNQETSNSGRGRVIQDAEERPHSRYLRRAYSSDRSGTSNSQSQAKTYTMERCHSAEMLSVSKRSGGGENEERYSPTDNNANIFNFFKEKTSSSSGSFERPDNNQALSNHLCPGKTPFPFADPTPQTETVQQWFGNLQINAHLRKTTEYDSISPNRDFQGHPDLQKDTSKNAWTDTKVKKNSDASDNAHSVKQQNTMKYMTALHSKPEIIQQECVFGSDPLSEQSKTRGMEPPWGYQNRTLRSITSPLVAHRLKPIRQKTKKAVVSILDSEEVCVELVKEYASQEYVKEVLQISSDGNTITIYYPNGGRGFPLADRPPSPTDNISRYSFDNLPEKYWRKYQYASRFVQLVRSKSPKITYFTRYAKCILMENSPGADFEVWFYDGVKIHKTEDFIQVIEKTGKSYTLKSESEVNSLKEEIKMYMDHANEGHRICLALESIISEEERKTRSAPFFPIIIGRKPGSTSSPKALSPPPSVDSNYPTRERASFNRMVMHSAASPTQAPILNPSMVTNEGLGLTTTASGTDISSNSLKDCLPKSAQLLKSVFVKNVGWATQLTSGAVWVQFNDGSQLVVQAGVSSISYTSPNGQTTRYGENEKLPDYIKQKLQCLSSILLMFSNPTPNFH
A digest of the protocol:
as §1

The target in test [6] is T4, SAPK2b(h) (Homo sapiens, UniProt Q15759).
T4 construct: gene MAPK11
A digest of the protocol:
as §1

For test [7], the target named is SLK(h) (Homo sapiens, UniProt Q9H2G2). A digest of the protocol:
as §1

[8] abbreviates: read-out: Residual activity (%) Spautin-1 5aa.
Where [9] appears, read: read-out: Residual activity (%) 5as.
Setting [10] is: read-out: Residual activity (%) 5at.
Where [11] appears, read: read-out: Residual activity (%) 5ay.

Each structure is given as a SMILES string. Like-named read-outs stand apart in the source and are kept apart here.

T2 sequence (Q7KZI7 whole entry): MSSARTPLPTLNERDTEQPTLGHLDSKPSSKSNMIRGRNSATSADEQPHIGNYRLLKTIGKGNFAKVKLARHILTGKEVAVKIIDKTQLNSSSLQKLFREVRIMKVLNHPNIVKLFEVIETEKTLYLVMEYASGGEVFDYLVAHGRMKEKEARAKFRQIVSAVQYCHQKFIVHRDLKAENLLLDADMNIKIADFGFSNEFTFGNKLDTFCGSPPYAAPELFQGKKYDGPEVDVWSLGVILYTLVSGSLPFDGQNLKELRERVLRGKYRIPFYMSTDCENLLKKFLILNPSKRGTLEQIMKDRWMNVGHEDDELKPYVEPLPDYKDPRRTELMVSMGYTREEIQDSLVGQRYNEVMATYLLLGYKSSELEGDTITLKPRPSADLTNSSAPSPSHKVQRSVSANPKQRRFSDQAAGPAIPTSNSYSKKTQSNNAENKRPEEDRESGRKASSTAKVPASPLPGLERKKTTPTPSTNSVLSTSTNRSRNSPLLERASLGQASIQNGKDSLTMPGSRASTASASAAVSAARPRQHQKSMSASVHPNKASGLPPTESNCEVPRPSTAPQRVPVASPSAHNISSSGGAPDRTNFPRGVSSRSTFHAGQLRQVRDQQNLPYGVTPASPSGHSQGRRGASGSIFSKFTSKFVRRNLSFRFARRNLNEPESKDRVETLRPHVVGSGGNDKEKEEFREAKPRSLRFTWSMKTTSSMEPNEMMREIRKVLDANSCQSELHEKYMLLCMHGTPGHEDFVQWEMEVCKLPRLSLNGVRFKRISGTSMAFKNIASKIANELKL
CDK17/cyclinY(h), sequence (Q00537 whole entry): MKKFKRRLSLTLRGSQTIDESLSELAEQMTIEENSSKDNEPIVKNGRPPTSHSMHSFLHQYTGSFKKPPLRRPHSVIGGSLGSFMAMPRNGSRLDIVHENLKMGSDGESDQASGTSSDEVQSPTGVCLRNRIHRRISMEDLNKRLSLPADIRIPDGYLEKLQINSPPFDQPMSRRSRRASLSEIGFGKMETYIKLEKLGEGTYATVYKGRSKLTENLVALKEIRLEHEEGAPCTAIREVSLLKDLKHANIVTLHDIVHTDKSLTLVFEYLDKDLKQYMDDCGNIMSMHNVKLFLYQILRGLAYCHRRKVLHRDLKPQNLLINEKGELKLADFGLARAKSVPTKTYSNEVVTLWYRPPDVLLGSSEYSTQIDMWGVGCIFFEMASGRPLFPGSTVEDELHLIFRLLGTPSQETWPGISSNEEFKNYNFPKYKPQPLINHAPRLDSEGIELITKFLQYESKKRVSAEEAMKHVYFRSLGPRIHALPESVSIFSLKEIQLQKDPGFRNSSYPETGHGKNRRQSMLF
CDK17/cyclinY(h), sequence (Q8ND76 whole entry partner): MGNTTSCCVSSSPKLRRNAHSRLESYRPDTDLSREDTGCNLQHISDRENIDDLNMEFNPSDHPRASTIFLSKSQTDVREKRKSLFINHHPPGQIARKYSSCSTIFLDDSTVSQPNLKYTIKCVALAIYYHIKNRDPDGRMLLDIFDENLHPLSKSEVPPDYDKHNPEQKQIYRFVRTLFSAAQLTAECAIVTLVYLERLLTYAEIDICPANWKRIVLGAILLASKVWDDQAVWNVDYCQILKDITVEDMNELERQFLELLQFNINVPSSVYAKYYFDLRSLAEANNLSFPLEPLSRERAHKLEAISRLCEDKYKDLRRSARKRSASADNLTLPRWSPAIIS
SLK(h), sequence (Q9H2G2 whole entry): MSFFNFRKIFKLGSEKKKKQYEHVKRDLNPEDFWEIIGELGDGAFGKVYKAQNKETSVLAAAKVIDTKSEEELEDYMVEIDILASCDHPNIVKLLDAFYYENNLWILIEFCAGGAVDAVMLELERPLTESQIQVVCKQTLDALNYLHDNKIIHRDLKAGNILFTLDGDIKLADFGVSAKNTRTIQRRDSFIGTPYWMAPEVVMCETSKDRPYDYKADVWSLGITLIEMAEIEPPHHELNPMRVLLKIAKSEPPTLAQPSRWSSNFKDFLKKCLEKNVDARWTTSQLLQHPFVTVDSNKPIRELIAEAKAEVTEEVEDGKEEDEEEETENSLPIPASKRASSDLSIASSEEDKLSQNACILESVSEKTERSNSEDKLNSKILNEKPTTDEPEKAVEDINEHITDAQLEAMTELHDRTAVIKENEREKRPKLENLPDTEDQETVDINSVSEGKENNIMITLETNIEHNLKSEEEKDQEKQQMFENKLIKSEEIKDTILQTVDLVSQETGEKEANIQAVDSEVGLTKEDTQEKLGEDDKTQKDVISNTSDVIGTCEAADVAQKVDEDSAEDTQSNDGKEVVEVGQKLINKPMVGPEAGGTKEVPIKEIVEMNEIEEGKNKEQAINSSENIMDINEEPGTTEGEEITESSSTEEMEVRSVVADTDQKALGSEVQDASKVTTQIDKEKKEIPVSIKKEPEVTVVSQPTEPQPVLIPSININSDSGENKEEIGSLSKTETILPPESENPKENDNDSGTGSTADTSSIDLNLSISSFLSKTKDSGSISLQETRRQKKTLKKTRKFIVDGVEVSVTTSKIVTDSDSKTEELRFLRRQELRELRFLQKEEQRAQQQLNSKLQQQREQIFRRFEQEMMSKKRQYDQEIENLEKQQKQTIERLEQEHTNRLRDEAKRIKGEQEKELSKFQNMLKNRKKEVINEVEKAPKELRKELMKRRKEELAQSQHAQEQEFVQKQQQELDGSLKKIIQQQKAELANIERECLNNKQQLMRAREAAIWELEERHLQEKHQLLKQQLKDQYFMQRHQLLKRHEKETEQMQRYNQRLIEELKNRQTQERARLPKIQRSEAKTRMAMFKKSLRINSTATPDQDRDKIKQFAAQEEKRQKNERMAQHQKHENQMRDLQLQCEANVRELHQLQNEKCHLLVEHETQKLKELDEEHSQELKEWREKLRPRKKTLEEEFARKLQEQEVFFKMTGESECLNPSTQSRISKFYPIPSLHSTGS
PAK2(h), sequence (Q13177 whole entry): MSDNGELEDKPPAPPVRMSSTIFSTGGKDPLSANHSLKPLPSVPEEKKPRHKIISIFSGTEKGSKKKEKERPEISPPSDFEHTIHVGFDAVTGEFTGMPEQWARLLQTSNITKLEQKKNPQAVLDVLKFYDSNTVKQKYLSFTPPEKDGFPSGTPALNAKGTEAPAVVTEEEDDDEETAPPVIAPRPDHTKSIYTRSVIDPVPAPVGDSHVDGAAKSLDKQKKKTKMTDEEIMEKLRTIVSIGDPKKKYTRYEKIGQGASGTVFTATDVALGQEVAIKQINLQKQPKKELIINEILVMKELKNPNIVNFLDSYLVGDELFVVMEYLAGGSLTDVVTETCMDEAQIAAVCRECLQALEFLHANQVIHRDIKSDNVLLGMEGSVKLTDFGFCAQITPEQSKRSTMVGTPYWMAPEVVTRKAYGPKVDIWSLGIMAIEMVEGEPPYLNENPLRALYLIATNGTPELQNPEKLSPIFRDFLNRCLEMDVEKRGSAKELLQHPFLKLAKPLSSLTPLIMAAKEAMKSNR
T4 sequence (Q15759 whole entry): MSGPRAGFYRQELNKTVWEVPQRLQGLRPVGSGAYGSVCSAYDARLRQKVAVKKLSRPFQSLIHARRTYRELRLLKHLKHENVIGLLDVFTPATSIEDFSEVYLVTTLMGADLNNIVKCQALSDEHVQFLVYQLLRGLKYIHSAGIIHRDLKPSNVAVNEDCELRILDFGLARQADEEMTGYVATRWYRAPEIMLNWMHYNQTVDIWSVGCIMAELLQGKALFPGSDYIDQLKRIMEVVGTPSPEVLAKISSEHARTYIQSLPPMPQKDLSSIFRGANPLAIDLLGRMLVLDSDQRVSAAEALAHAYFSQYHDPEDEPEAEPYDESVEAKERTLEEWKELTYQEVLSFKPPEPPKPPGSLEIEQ

Regarding `Fc1ccc(CNc2ncnc3ccc(F)cc23)cc1` [5aa, 6-Fluoro-N-(4-fluorobenzyl)-4-Quinazolinamine], the remaining activity at 10 µM in test [1] (setting [8]) was found to be 82%; in test [2] (setting [8]), 71%; in test [3] (setting [8]) it was 87%; in test [4] (setting [8]) it was 84%; in test [5] (setting [8]), 91%; in test [6] (setting [8]), 79%. The remaining activity at 10 µM in test [7] (setting [8]) was 98%.

Turning to `Fc1ccc(CCNc2ncnc3ccc(F)cc23)cc1` [5as, 6-Fluoro-N-[2-(4-Fluorophenyl)Ethyl]-4-Quinazolinamine], the remaining activity at 10 µM in test [1] (setting [9]) was 80%; in test [2] (setting [9]), 73%; in test [3] (setting [9]) it was 94%; in test [4] (setting [9]) it was 86%; in test [5] (setting [9]), 80%; in test [6] (setting [9]) it was 95%. Moreover, in test [7] (setting [9]), the remaining activity at 10 µM came out at 77%.

For the compound `Fc1ccc2ncnc(NCCc3ccc(Cl)cc3)c2c1` [5at, N-[2-(4-Chlorophenyl)Ethyl]-6-Fluoro-4-Quinazolinamine], the remaining activity at 10 µM in test [1] (setting [10]) amounted to 88%; in test [2] (setting [10]), 62%; in test [3] (setting [10]), 78%; in test [4] (setting [10]), 101%; in test [5] (setting [10]) it was 78%; in test [6] (setting [10]), 84%. Besides, in test [7] (setting [10]), the remaining activity at 10 µM amounted to 78%.

With `COc1ccc2ncnc(Nc3cccc(F)c3)c2c1` [5ay, N-(3-Fluorophenyl)-6-Methoxy-4-Quinazolinamine], the remaining activity at 10 µM in test [1] (setting [11]) came to 74%; in test [2] (setting [11]) it was 70%; in test [3] (setting [11]) it was 98%; in test [4] (setting [11]) it was 83%; in test [5] (setting [11]), 87%; in test [6] (setting [11]) it was 83%. Also, the remaining activity at 10 µM in test [7] (setting [11]) stood at 70%.

The record behind these values is article PMC7827406, “Structure–Activity Relationship (SAR) Study of Spautin-1 to Entail the Discovery of Novel NEK4 Inhibitors” (International Journal of Molecular Sciences, 2021).
